US6069132A, “Phosphazole compounds” (priority 1997, dated 2000)
Like-named read-outs stand apart in the source and are kept apart here.

Key:
Assay type in all cases: cell-based, human
THP-1 cells = assay: Cytotoxicity on growing THP-1 cells (MTS assay); conditions: 4 days (FIG. 1A)
Method: Cytotoxicity Analysis. The cytotoxicity of the compounds were assayed using the CellTiter 96™ Aqueous Non-Radioactive Cell Proliferation (MTS) Assay kit obtained from Promega (Madison, Wis.) following the instructions provided by the supplier. The viable cell number was determined by trypan blue staining and cells (THP-1) were resuspended in PRMI supplemented with 10% FBS (GIBCO). Eighty microliters of cell suspension (1.7×10^4cells/well) was dispensed onto a 96-well microtiter plates. At this time 20 μL of drug (or control) was added to appropriate wells. Each concentration was assayed in quadruplicate. The plates were incubated at 37° C. in a humidified 5% CO2 atmosphere for 4 days and MTS assay […] for each concentration and the data obtained was used to calculate TC50 (the concentration of the compound necessary to inhibit the cell growth by 50%) for each compound.

TNFα = assay: Inhibition of TNFα in LPS-stimulated PBMCs; conditions: for inhibition at 10 µg/mL / inhibition at 50 µg/mL / inhibition at 100 µg/mL / inhibition at 250 µg/mL: Homo sapiens, PBMC; for inhibition at 10 µg/mL: 10 μg/ml; for inhibition at 50 µg/mL: 50 μg/ml; for inhibition at 100 µg/mL: 100 μg/ml; for inhibition at 250 µg/mL: 250 μg/ml
Method: (§1) Primary cell assays. Primary human peripheral blood mononuclear cells (PBMCS) were isolated as described by Ojwang et al. (114). Isolated monocytes were added to 24-well cluster plates (Costar, Cambridge, Mass.) at a concentration of 1×10^5 viable cells per well. Culture medium or test material dilutions in culture medium were added to the wells, the plates were then incubated at 37° C. for one hour. […] The plates were incubated an additional 4, 24 or 48 hours. The supernatant fluids were then harvested and centrifuged to pellet cells or cellular debris, and the supernatant fluids were stored at -70° C. until they were assayed for the presence of TNFα using a commercially available ELISA kit, such as that described in Example 46.

IL-1β = assay: Inhibition of IL-1β in LPS-stimulated PBMCs; conditions: for inhibition at 10 µg/mL / inhibition at 50 µg/mL / inhibition at 100 µg/mL / inhibition at 250 µg/mL: Homo sapiens, PBMC; for inhibition at 10 µg/mL: 10 μg/ml; for inhibition at 50 µg/mL: 50 μg/ml; for inhibition at 100 µg/mL: 100 μg/ml; for inhibition at 250 µg/mL: 250 μg/ml
Method: The phosphazole T70241 was further evaluated for its activity against IL-1β in PBMCs stumulated with LPS and aliquotes collected after 4, 24 and 48 hour post-stimulation.
as §1

[1] = Viability of PBMCs exposed to test compound; conditions: human, pbmcs, 48 h, +LPS, read-out: % Viable Cells

SMILES: Nc1ncnc2pc[nH]c12 (centres unmarked) [T70241, 7-amino-1H-1,3-azaphospholo[4,5-d]pyrimidine]
- effect on THP-1 growth (THP-1 cells; higher concentrations): stimulates THP-1 growth at higher concentrations
- toxic effect on THP-1 cells (THP-1 cells; up to 1 mg/mL): no toxic effect on the THP-1 cells
- TNFα production in PBMCs (TNFα; 48 hours post-LPS induction): significantly reduce the levels of TNFα production in the PBMCs
- inhibition at 10 µg/mL (TNFα; 4 h): 0%
- inhibition at 10 µg/mL (TNFα; 24 h): -3%
- inhibition at 10 µg/mL (TNFα; 48 h): -9%
- inhibition at 50 µg/mL (TNFα; 4 h): 50%
- inhibition at 50 µg/mL (TNFα; 24 h): 58%
- inhibition at 50 µg/mL (TNFα; 48 h): 51%
- inhibition at 100 µg/mL (TNFα; 4 h): 76%
- inhibition at 100 µg/mL (TNFα; 24 h): 81%
- inhibition at 100 µg/mL (TNFα; 48 h): 79%
- inhibition at 250 µg/mL (TNFα; 4 h): 76%
- inhibition at 250 µg/mL (TNFα; 24 h): 84%
- inhibition at 250 µg/mL (TNFα; 48 h): 82%
- inhibition at 10 µg/mL (IL-1β; 4 h): 18%
- inhibition at 10 µg/mL (IL-1β; 24 h): 6%
- inhibition at 10 µg/mL (IL-1β; 48 h): 4%
- inhibition at 50 µg/mL (IL-1β; 4 h): 86%
- inhibition at 50 µg/mL (IL-1β; 24 h): 24%
- inhibition at 50 µg/mL (IL-1β; 48 h): 36%
- inhibition at 100 µg/mL (IL-1β; 4 h): 98%
- inhibition at 100 µg/mL (IL-1β; 24 h): 78%
- inhibition at 100 µg/mL (IL-1β; 48 h): 70%
- inhibition at 250 µg/mL (IL-1β; 4 h): 99.7%
- inhibition at 250 µg/mL (IL-1β; 24 h): 86%
- inhibition at 250 µg/mL (IL-1β; 48 h): 75%
- inhibition of IL-1β in PBMCs (IL-1β; up to 48 hour): inhibited IL-1β up to 48 hour in a dose dependent fashion
- viability at 48 h ([1]; 10 μg/ml): 104%
- viability at 48 h ([1]; 50 μg/ml): 83%
- viability at 48 h ([1]; 100 μg/ml): 94%
- viability at 48 h ([1]; 250 μg/ml): 88%
